Measured values taken from ChEMBL document CHEMBL5338713, “Discovery of pomalidomide-based PROTACs for selective degradation of histone deacetylase 8” (Eur J Med Chem, 2022).
Activity calls are given as the source filed them. The rule behind the calls is not given here.

What was measured:
Format in all cases: cell-based
[1] = target: T1, Histone deacetylase 8 (Homo sapiens) (UniProt Q9BY41); experiment: Induction of HDAC8 degradation in human HCT-116 cells at 5 uM measured at 24 hrs by Western blot analysis
T1 sequence (whole entry): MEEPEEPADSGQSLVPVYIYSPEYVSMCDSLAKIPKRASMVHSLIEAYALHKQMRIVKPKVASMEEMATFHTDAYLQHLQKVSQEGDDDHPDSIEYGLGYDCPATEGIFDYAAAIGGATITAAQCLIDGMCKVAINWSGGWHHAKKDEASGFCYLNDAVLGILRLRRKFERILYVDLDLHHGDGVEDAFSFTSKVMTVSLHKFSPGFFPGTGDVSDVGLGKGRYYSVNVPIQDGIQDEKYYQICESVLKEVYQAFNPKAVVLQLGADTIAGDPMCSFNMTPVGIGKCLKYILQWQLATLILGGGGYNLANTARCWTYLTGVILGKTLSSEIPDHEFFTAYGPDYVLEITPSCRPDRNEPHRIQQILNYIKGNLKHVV

[2] = target: T2, Protein cereblon/Histone deacetylase 8 (Homo sapiens) (UniProt Q9BY41+Q96SW2); experiment: PROTAC activity at HDAC8/CRBN in human HCT-116 cells assessed as degradation of HDAC8 at 5 uM measured after 10 hrs in presence of BRD73954 by Western blot analysis
[3] = target: T1, Histone deacetylase 8 (Homo sapiens); experiment: Induction of HDAC8 degradation in human HCT-116 cells assessed as hook effect measured at > 40 uM for 10 hrs by Western blot analysis
[4] = target: T1, Histone deacetylase 8 (Homo sapiens); experiment: Induction of HDAC8 degradation in human HCT-116 cells assessed as maximum degradation at 0.1 to 160 uM measured after 10 hrs by Western blot analysis relative to control; details: dose 0.1-160 µM
[5] = target: T1, Histone deacetylase 8 (Homo sapiens); experiment: Induction of HDAC8 degradation in human HCT-116 cells at 5 uM by Western blot analysis relative to control
[6] = target: T1, Histone deacetylase 8 (Homo sapiens); experiment: Induction of HDAC8 degradation in human HCT-116 cells at 5 uM measured at 2 hrs by Western blot analysis
[7] = target: T2, Protein cereblon/Histone deacetylase 8 (Homo sapiens); experiment: PROTAC activity at HDAC8/CRBN in human HCT-116 cells assessed as degradation of HDAC8 at 5 uM measured after 10 hrs in presence of bafilomycin Al by Western blot analysis
[8] = target: T3, Protein deacetylase HDAC6 (Homo sapiens) (UniProt Q9UBN7); experiment: Induction of HDAC6 degradation in human HCT-116 cells assessed as increase in alpha-tubulin acetylation level measured after 10 hrs by Western blot analysis; details: dose 0.1-160 µM
T3 sequence (whole entry): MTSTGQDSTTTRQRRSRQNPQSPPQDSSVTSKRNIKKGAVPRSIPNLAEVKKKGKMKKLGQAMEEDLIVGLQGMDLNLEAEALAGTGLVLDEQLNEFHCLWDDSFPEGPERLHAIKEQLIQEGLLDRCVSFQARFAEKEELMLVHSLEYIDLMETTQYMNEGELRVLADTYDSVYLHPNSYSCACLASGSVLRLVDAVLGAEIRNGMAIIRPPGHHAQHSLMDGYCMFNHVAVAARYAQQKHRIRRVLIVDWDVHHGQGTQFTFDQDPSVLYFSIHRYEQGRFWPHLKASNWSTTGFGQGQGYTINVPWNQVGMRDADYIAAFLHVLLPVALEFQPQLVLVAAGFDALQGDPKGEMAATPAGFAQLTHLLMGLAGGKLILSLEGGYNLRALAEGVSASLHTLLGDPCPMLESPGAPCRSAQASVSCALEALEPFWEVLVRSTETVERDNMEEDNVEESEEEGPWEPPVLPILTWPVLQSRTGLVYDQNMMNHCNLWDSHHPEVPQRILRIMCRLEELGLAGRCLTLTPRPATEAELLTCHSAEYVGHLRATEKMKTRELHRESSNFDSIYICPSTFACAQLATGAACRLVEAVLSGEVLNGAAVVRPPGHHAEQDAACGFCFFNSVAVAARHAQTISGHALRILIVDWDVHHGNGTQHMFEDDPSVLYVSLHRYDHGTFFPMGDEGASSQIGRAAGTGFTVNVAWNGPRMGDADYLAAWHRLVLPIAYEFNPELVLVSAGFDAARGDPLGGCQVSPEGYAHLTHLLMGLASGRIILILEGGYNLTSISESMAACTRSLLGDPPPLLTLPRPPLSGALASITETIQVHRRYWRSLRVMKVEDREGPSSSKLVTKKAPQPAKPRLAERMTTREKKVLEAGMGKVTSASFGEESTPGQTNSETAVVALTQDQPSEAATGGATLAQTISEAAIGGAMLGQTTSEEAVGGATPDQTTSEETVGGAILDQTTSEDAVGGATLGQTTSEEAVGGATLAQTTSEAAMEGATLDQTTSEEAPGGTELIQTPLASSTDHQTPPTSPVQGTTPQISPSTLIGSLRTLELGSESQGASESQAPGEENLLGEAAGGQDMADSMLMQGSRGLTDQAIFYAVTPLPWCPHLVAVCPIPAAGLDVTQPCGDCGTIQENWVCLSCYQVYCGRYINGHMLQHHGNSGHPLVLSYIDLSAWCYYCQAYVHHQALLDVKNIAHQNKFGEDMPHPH

[9] = target: T2, Protein cereblon/Histone deacetylase 8 (Homo sapiens); experiment: PROTAC activity at HDAC8/CRBN in human HCT-116 cells assessed as degradation of HDAC8 at 5 uM measured after 10 hrs in presence of MG132 by Western blot analysis
[10] = target: T2, Protein cereblon/Histone deacetylase 8 (Homo sapiens); experiment: PROTAC activity at HDAC8/CRBN in human HCT-116 cells assessed as degradation of HDAC8 at 5 uM measured after 10 hrs in presence of pomalidomide by Western blot analysis
[11] = target: T4, Protein deacetylase HDAC6 (Homo sapiens, UniProt Q9UBN7); experiment: Induction of HDAC6 degradation in human HCT-116 cells measured after 10 hrs by Western blot analysis
T4 sequence (Q9UBN7 whole entry): T3 sequence (whole entry)

[12] = target: T2, Protein cereblon/Histone deacetylase 8 (Homo sapiens); experiment: PROTAC activity at HDAC8/CRBN in human HCT-116 cells assessed as degradation of HDAC8 at 5 uM measured after 10 hrs in presence of E3 ligase inhibitor by Western blot analysis
[13] = target: Histone deacetylase 3 (Homo sapiens) (UniProt O15379); experiment: Induction of HDAC3 degradation in human HCT-116 cells at 0.1 to 160 uM measured after 10 hrs by Western blot analysis; details: dose 0.1-160 µM
[14] = target: Histone deacetylase 1 (Homo sapiens) (UniProt Q13547); experiment: Induction of HDAC1 degradation in human HCT-116 cells at 0.1 to 160 uM measured after 10 hrs by Western blot analysis; details: dose 0.1-160 µM
[15] = target: T1, Histone deacetylase 8 (Homo sapiens); experiment: Induction of HDAC8 degradation in human HCT-116 cells assessed as increase in SMC3 acetylation level measured after 10 hrs by Western blot analysis; details: dose 0.1-160 µM
[16] = target: T1, Histone deacetylase 8 (Homo sapiens); experiment: Induction of HDAC8 degradation in human HCT-116 cells assessed as maximum degradation at 5 uM measured at 10 hrs by Western blot analysis

T2 sequence (Q96SW2 whole entry, looked up, one chain of several): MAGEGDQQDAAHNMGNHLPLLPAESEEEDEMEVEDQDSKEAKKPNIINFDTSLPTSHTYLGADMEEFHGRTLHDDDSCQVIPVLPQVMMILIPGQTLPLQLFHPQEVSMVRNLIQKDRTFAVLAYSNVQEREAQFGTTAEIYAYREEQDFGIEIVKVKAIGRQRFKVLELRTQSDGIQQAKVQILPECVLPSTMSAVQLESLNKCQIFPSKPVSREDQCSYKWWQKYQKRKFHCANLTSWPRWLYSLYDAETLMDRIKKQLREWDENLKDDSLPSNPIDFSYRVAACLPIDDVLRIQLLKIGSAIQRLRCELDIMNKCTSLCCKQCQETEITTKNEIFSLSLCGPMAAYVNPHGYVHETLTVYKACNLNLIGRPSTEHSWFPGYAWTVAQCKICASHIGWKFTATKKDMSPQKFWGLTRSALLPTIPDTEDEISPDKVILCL
Sequence of Histone deacetylase 3 (Homo sapiens) (O15379 whole entry): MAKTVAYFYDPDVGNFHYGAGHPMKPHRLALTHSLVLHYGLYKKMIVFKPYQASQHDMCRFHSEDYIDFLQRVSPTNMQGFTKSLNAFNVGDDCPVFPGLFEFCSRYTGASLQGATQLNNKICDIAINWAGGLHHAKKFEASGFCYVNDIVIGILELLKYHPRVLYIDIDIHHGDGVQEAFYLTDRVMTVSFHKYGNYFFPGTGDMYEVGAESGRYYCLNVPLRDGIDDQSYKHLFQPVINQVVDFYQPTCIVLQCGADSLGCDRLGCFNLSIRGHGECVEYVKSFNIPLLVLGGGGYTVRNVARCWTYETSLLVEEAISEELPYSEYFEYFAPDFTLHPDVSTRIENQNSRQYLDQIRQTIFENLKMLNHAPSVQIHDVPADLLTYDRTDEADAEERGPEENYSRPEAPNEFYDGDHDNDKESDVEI
Sequence of Histone deacetylase 1 (Homo sapiens) (Q13547 whole entry): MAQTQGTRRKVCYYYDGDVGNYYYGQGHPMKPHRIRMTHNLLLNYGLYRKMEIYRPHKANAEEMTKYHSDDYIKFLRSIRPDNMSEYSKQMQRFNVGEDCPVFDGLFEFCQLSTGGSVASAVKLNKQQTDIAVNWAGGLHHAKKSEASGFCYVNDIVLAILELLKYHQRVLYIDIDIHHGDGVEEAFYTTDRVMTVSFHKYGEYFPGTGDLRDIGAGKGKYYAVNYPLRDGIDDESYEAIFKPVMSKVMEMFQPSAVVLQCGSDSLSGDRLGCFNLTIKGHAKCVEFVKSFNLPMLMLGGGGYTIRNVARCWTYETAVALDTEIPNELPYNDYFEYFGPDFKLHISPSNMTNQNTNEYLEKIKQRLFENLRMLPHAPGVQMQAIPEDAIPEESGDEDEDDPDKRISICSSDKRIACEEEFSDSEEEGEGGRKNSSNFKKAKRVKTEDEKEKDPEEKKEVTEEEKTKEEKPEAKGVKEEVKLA

SMILES: O=C(CCCCOc1ccc(CCNC(=O)c2cccc(C(=O)NO)c2)cc1)NCCCCCCNc1cccc2c1C(=O)N(C1CCC(=O)NC1=O)C2=O (stereo unspecified)
- Activity [1]: Active
- Activity [2]: inactive
- Activity [3]: Active
- Emax [4]: 93%
- Activity [5]: 85%
- Activity [6]: Active
- Activity [7]: Active
- Activity [8]: Dose-Dependent Effect
- Activity [9]: inactive
- Activity [10]: inactive
- DC50 [11]: 4.95 µM
- Activity [12]: inactive
- Activity [13]: inactive
- Activity [14]: inactive
- Activity [15]: Dose-Dependent Effect
- Activity [16]: Active
